Read-outs that look alike come from different tables or passages of the source. Where no end group is shown, it is not given here.
Legend:
[1] = biological target: T1, K^b on the surface of K^b transfected drosophila cells (Mus musculus, UniProt P01901); assay: FACS analysis of stabilization of cell surface K^b by peptides; type: cell-based
T1 construct: expressed in transfected cells; host or cells: Drosophila cells transfected with K^b
T1 sequence (P01901 22-369): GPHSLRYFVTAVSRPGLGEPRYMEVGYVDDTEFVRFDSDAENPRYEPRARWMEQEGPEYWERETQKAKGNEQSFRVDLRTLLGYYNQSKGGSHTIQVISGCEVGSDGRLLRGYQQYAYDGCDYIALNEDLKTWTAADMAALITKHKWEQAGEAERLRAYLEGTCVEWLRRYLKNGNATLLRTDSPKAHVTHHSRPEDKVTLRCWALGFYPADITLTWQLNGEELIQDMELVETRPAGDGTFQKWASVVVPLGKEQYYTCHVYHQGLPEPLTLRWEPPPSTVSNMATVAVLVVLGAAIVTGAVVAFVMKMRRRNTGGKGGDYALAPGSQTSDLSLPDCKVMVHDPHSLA
T1 sequence (P01887 21-119 partner): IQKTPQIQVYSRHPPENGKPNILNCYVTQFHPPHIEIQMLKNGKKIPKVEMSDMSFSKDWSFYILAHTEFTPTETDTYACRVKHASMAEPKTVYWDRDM
Description: FACS Analysis. Values from fluorescence activated cell sorter (FACS) analysis showing the relative amounts of K^b on the surface of K^b transfected drosophila cells following an 18-hour incubation with the indicated peptides. […] Median fluorescence values from separate experiments were normalized by subtracting the median fluorescence obtained in the absence of added peptides from each peptide sample and then expressing those values as the percent of the fluorescence obtained with […] (which was examined in all experiments). Peptide binding was also analyzed by the ability to stabilize cell surface K^b molecules. Empty class I molecules are thermolabile, but they can be stabilized by binding appropriate peptides. Peptides were bound to K^b molecules expressed on the surfaces of K^b transfected Drosophila cells. Their relative binding strengths are indicated by their median fluorescence.

K^b [2] = biological target: T2, K^b (Mus musculus, UniProt P01901); settings: known immunodominant epitope, characterized previously; read-out: KD (dissociation constant); cited from earlier work
T2 construct: Soluble K^b was purified from transfected Drosophila cells; made in house; host or cells: transfected Drosophila cells
T2 sequence (P01901 22-305 limits assumed): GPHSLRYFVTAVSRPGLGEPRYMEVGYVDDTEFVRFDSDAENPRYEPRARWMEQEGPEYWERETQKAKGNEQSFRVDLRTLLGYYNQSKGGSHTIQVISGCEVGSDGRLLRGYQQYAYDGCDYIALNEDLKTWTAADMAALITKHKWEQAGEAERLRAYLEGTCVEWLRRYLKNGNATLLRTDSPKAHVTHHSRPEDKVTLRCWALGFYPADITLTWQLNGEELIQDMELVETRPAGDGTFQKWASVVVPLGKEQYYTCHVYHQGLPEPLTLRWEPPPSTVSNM
T2 sequence (P01887 21-119 partner): T1 sequence (P01887 21-119 partner)

K^b [3] = biological target: T2, K^b; assay: biochemical; type: binding
[4] = 18-hour incubation with peptide, 23° C., antibody Y3, median fluorescence normalized to SIINFEKL
[5] = read-out: KD (dissociation constant)

Row | Compound | FACS Analysis % SIINFEKL (relative amount of K^b on cell surface) [1, 4] [% SIINFEKL] | Kd (K^b [2]) [nM] | Kd (K^b [3]) [nM] | FACS Analysis % SIINFEKL (relative amount of K^b on cell surface) [1] | Kd (K^b [3]; [5]) [nM]
1 | CC[C@H](C)[C@H](NC(=O)[C@@H](NC(=O)[C@@H](N)CO)[C@@H](C)CC)C(=O)N[C@@H](CC(N)=O)C(=O)N[C@@H](Cc1ccccc1)C(=O)N[C@@H](CCC(=O)O)C(=O)N[C@@H](CCCCN)C(=O)N[C@@H](CC(C)C)C(=O)O [Peptide 1, reference compound] | 100 | 3 | – | – | –
2 | AEERYPIL [Peptide 3] | 42 | – | 67000 | – | –
3 | ASEKMKIL [Peptide 9] | 4 | – | 550000 | – | –
4 | DHPFLFCI [Peptide 10] | 38 | – | 47000 | – | –
5 | DVYSFSLA [Peptide 7] | 65 | – | 70 | – | –
6 | ENIFYCPI [Peptide 11] | – | – | – | 77 | 94
7 | GTMSMLVL [Peptide 8] | 0 | – | 1200 | – | –
8 | KVVRFDKL [Peptide 5] | 94 | – | 26 | – | –
9 | NAIVFKGL [Peptide 4] | 76 | – | 13 | – | –
10 | RGDKLPGFG [Peptide 6] | 30 | – | 550000 | – | –
11 | RGYVYQGL [VSV8, reference compound] | – | – | – | – | 4.1
12 | SALAMVYL [Peptide 2] | 100 | – | 7.1 | – | –
